Tested on: MV-4-11 cells
Assay: Gene expression microarray analysis (Affymetrix PrimeView) and GSEA
Type: cell-based, human
Design: RFU PODN (11730768_x_at) / Fold change /veh PODN (11730768_x_at) / RFU LINC00158 (11744669_a_at) / Fold change /veh LINC00158 (11744669_a_at) / RFU DUSP10 (11751237_a_at) / Fold change /veh DUSP10 (11751237_a_at) / RFU ID3 (11757404_x_at) / Fold change /veh ID3 (11757404_x_at) / RFU PLEKHG5 (11737974_s_at) / Fold change /veh PLEKHG5 (11737974_s_at) / RFU LRRC4B (11730491_at) / Fold change /veh LRRC4B (11730491_at) / RFU GIMAP4 (11747438_a_at) / Fold change /veh GIMAP4 (11747438_a_at) / RFU KRT8 (11758183_x_at) / Fold change /veh KRT8 (11758183_x_at) / RFU CNN1 (11734310_a_at) / Fold change /veh CNN1 (11734310_a_at) / RFU VPS37D (11726825_at) / Fold change /veh VPS37D (11726825_at) / RFU C10orf10 (11716522_x_at) / Fold change /veh C10orf10 (11716522_x_at) / RFU KIR2DL2 /// KIR2DL4 /// KIR2DL5A /// KIR2DL5B /// KIR2DS1 /// KIR2DS2 /// KIR2DS3 /// KIR2DS4 /// KIR3DL3 /// KIR3DL3 /// KIR3DS1 (11738374_at) / Fold change /veh KIR2DL2 /// KIR2DL4 /// KIR2DL5A /// KIR2DL5B /// KIR2DS1 /// KIR2DS2 /// KIR2DS3 /// KIR2DS4 /// KIR3DL3 /// KIR3DL3 /// KIR3DS1 (11738374_at) / RFU C1QL1 (11718748_at) / Fold change /veh C1QL1 (11718748_at) / RFU TMPRSS4 (11747572_a_at) / Fold change /veh TMPRSS4 (11747572_a_at) / RFU HAMP (11756126_x_at) / Fold change /veh HAMP (11756126_x_at) / RFU RNFT2 (11725882_a_at) / Fold change /veh RNFT2 (11725882_a_at) / RFU NR4A2 (11747474_a_at) / Fold change /veh NR4A2 (11747474_a_at) / RFU ABCC12 (11746883_a_at) / Fold change /veh ABCC12 (11746883_a_at) / RFU TMEM136 (11760407_x_at) / Fold change /veh TMEM136 (11760407_x_at) / RFU CLDN22 /// WWC2 (11732394_at) / Fold change /veh CLDN22 /// WWC2 (11732394_at) / RFU HLA-DPB1 (11760878_x_at) / Fold change /veh HLA-DPB1 (11760878_x_at) / RFU SPINT1 (11716480_a_at) / Fold change /veh SPINT1 (11716480_a_at) / RFU GAP43 (11754022_s_at) / Fold change /veh GAP43 (11754022_s_at) / RFU A4GNT (11735810_at) / Fold change /veh A4GNT (11735810_at) / RFU PRB3 (11715151_x_at) / Fold change /veh PRB3 (11715151_x_at) / RFU TUBB4B (11761932_at) / Fold change /veh TUBB4B (11761932_at) / RFU CAPN14 (11732068_a_at) / Fold change /veh CAPN14 (11732068_a_at) / RFU TMCC2 (11721928_a_at) / Fold change /veh TMCC2 (11721928_a_at) / RFU IRGQ (11745062_a_at) / Fold change /veh IRGQ (11745062_a_at) / RFU FAM174B (11720279_a_at) / Fold change /veh FAM174B (11720279_a_at) / RFU TMPRSS4 (11748680_a_at) / Fold change /veh TMPRSS4 (11748680_a_at) / RFU FAM212B (11763350_a_at) / Fold change /veh FAM212B (11763350_a_at) / RFU PLEKHG5 (11743358_a_at) / Fold change /veh PLEKHG5 (11743358_a_at) / RFU ZSCAN30 (11745921_a_at) / Fold change /veh ZSCAN30 (11745921_a_at) / RFU CMKLR1 (11741424_a_at) / Fold change /veh CMKLR1 (11741424_a_at) / RFU LOC101060620 /// MAPK8IP1 (11723275_at) / Fold change /veh LOC101060620 /// MAPK8IP1 (11723275_at) / RFU SPTSSB (11747773_x_at) / Fold change /veh SPTSSB (11747773_x_at) / RFU PRSS12 (11739890_at) / Fold change /veh PRSS12 (11739890_at) / RFU BIN1 (11741810_x_at) / Fold change /veh BIN1 (11741810_x_at) / RFU WNT11 (11732464_a_at) / Fold change /veh WNT11 (11732464_a_at) / RFU C10orf10 (11716521_a_at) / Fold change /veh C10orf10 (11716521_a_at) / RFU C5orf56 (11738089_at) / Fold change /veh C5orf56 (11738089_at) / RFU CYB561 (11721691_x_at) / Fold change /veh CYB561 (11721691_x_at) / RFU ANKRD19P (11752326_a_at) / Fold change /veh ANKRD19P (11752326_a_at) / RFU OR2T12 /// OR2T33 /// OR2T8 (11738714_s_at) / Fold change /veh OR2T12 /// OR2T33 /// OR2T8 (11738714_s_at) / RFU VCAN (11748164_a_at) / Fold change /veh VCAN (11748164_a_at) / RFU JSRP1 (11732532_at) / Fold change /veh JSRP1 (11732532_at) / RFU KRTAP10-11 (11738290_x_at) / Fold change /veh KRTAP10-11 (11738290_x_at) / RFU MYO3A (11730013_a_at) / Fold change /veh MYO3A (11730013_a_at) / RFU EBF3 (11725865_a_at) / Fold change /veh EBF3 (11725865_a_at) / RFU CAMK2N1 (11719241_x_at) / Fold change /veh CAMK2N1 (11719241_x_at) / RFU C5orf56 (11738088_a_at) / Fold change /veh C5orf56 (11738088_a_at) / RFU OLFML3 (11715873_a_at) / Fold change /veh OLFML3 (11715873_a_at) / RFU LOC100653217 /// NTM (11731650_a_at) / Fold change /veh LOC100653217 /// NTM (11731650_a_at) / RFU MAPK11 (11762145_a_at) / Fold change /veh MAPK11 (11762145_a_at) / RFU FIZ1 (11724087_x_at) / Fold change /veh FIZ1 (11724087_x_at) / RFU OASL (11726364_x_at) / Fold change /veh OASL (11726364_x_at) / RFU SOX15 (11748057_x_at) / Fold change /veh SOX15 (11748057_x_at) / RFU CD79A (11719716_a_at) / Fold change /veh CD79A (11719716_a_at) / RFU HIST1H1D (11736915_at) / Fold change /veh HIST1H1D (11736915_at) / RFU CASKIN2 (11723855_a_at) / Fold change /veh CASKIN2 (11723855_a_at) / RFU LOC730098 (11760151_x_at) / Fold change /veh LOC730098 (11760151_x_at) / RFU OR4N2 (11742367_at) / Fold change /veh OR4N2 (11742367_at) / RFU PRRT2 (11749266_a_at) / Fold change /veh PRRT2 (11749266_a_at) / RFU SNX32 (11753110_a_at) / Fold change /veh SNX32 (11753110_a_at) / RFU CDHR5 (11726645_a_at) / Fold change /veh CDHR5 (11726645_a_at) / RFU RCAN1 (11760418_a_at) / Fold change /veh RCAN1 (11760418_a_at) / RFU FAM167A (11723789_a_at) / Fold change /veh FAM167A (11723789_a_at) / RFU FAM26E (11764081_at) / Fold change /veh FAM26E (11764081_at) / RFU ISYNA1 (11749810_s_at) / Fold change /veh ISYNA1 (11749810_s_at) / RFU ACY1 (11761880_at) / Fold change /veh ACY1 (11761880_at) / RFU 11764098_at / Fold change /veh 11764098_at / RFU SAMD14 (11745864_x_at) / Fold change /veh SAMD14 (11745864_x_at) / RFU NPB (11741838_a_at) / Fold change /veh NPB (11741838_a_at) / RFU TMPRSS6 (11731388_a_at) / Fold change /veh TMPRSS6 (11731388_a_at) / RFU KRTAP10-2 (11738614_at) / Fold change /veh KRTAP10-2 (11738614_at) / RFU ARHGAP8 /// PRR5-ARHGAP8 (11727945_x_at) / Fold change /veh ARHGAP8 /// PRR5-ARHGAP8 (11727945_x_at) / RFU KRTAP5-7 /// NADSYN1 (11734609_at) / Fold change /veh KRTAP5-7 /// NADSYN1 (11734609_at) / RFU RASL12 (11751679_a_at) / Fold change /veh RASL12 (11751679_a_at) / RFU CDKN2B (11736163_a_at) / Fold change /veh CDKN2B (11736163_a_at) / RFU PRF1 (11729649_at) / Fold change /veh PRF1 (11729649_at) / RFU, ZNF638 /// ZNF638-IT1 / Fold change vs veh, ZNF638 /// ZNF638-IT1 / RFU, PANK3 / Fold change vs veh, PANK3 / RFU, SH3YL1 / Fold change vs veh, SH3YL1 / RFU, ZEB2 / Fold change vs veh, ZEB2 / RFU, NRIP1 / Fold change vs veh, NRIP1 / RFU, PTTG1IP / Fold change vs veh, PTTG1IP / RFU, CAPN2 / Fold change vs veh, CAPN2 / RFU, MED14 / Fold change vs veh, MED14 / RFU, SNORA58 / Fold change vs veh, SNORA58 / RFU, C1orf63 / Fold change vs veh, C1orf63 / RFU, LRRFIP1 / Fold change vs veh, LRRFIP1 / RFU, NDUFAF7 / Fold change vs veh, NDUFAF7 / RFU, SLC12A2 / Fold change vs veh, SLC12A2 / RFU, IBTK / Fold change vs veh, IBTK / RFU, ESF1 / Fold change vs veh, ESF1 / Fold change vs veh, TMEM50B / RFU, TAOK1 / Fold change vs veh, TAOK1 / RFU, ACBD3 / Fold change vs veh, ACBD3 / RFU, TMA16 / Fold change vs veh, TMA16 / RFU, RWDD3 / Fold change vs veh, RWDD3 / RFU, BCAT1 / Fold change vs veh, BCAT1 / RFU, EDEM3 / Fold change vs veh, EDEM3 / RFU, TMEM33 / Fold change vs veh, TMEM33 / RFU, WDR75 / Fold change vs veh, WDR75 / RFU, AHCTF1 / Fold change vs veh, AHCTF1 / RFU, TFRC / Fold change vs veh, TFRC / RFU, ZDHHC17 / Fold change vs veh, ZDHHC17 / RFU, NOM1 / Fold change vs veh, NOM1 / RFU, ARL8B / Fold change vs veh, ARL8B / RFU, ZBTB11 / Fold change vs veh, ZBTB11 / RFU, TAMM41 / Fold change vs veh, TAMM41 / RFU, KIAA1704 /// LOC100996395 / Fold change vs veh, KIAA1704 /// LOC100996395 / RFU, ING1 / Fold change vs veh, ING1 / RFU, TRMT61B / Fold change vs veh, TRMT61B / RFU, FUBP3 / Fold change vs veh, FUBP3 / RFU, TP53 / Fold change vs veh, TP53 / RFU, TNKS2 / Fold change vs veh, TNKS2 / RFU, ZFP14 / Fold change vs veh, ZFP14 / RFU, ACTR2 / Fold change vs veh, ACTR2 / RFU, PPP3R1 / Fold change vs veh, PPP3R1 / RFU, PIK3R1 / Fold change vs veh, PIK3R1 / RFU, HNRNPA1 / Fold change vs veh, HNRNPA1 / RFU, RNF170 / Fold change vs veh, RNF170 / RFU, ZNF28 / Fold change vs veh, ZNF28 / RFU, RNGTT / Fold change vs veh, RNGTT / RFU, OGT / Fold change vs veh, OGT / RFU, BRD1 / Fold change vs veh, BRD1 / RFU, MARS / Fold change vs veh, MARS / RFU, ZNF655 / Fold change vs veh, ZNF655 / RFU, FAHD1 / Fold change vs veh, FAHD1 / RFU, BDP1 / Fold change vs veh, BDP1 / RFU, LRRCC1 / Fold change vs veh, LRRCC1 / RFU, ARID1A / Fold change vs veh, ARID1A / RFU, ZNF146 / Fold change vs veh, ZNF146 / RFU, ZNF330 / Fold change vs veh, ZNF330 / RFU, GPN3 / Fold change vs veh, GPN3 / RFU, C9orf123 / Fold change vs veh, C9orf123 / RFU, N4BP2L2 / Fold change vs veh, N4BP2L2 / RFU, ARFIP1 / Fold change vs veh, ARFIP1 / RFU, FAM179B / Fold change vs veh, FAM179B / RFU, BCL10 / Fold change vs veh, BCL10 / RFU, UHRF1BP1L / Fold change vs veh, UHRF1BP1L / RFU, BET1 / Fold change vs veh, BET1 / RFU, CNOT2 / Fold change vs veh, CNOT2 / RFU, ZNF268 / Fold change vs veh, ZNF268 / Fold change vs veh, ZNF507 / RFU, DGCR2 / Fold change vs veh, DGCR2 / RFU, WDSUB1 / Fold change vs veh, WDSUB1 / Fold change vs veh, HSP90B1 /// MIR3652 / RFU, ADSS / Fold change vs veh, ADSS / RFU, GK / Fold change vs veh, GK / RFU, ZNF148 / Fold change vs veh, ZNF148 / RFU, TAF9 / Fold change vs veh, TAF9 / RFU, SLC1A5 / Fold change vs veh, SLC1A5 / RFU, SLMO2 / Fold change vs veh, SLMO2 / RFU, ABCC4 / Fold change vs veh, ABCC4 / RFU, LOC101060439 /// RAP1B / Fold change vs veh, LOC101060439 /// RAP1B / RFU, RFX7 / Fold change vs veh, RFX7 / RFU, GTPBP10 / Fold change vs veh, GTPBP10 / RFU, CNEP1R1 / Fold change vs veh, CNEP1R1 / RFU, BIVM-ERCC5 /// ERCC5 / Fold change vs veh, BIVM-ERCC5 /// ERCC5 / RFU, ILF3 / Fold change vs veh, ILF3 / RFU 11762660_at / Fold change /veh 11762660_at / RFU VCAN (11757783_s_at) / Fold change /veh VCAN (11757783_s_at) / RFU DDX43 (11728927_at) / Fold change /veh DDX43 (11728927_at) / RFU KRT8 (11758188_x_at) / Fold change /veh KRT8 (11758188_x_at) / RFU NKD1 (11759106_at) / Fold change /veh NKD1 (11759106_at) / RFU SRD5A1 (11742802_a_at) / Fold change /veh SRD5A1 (11742802_a_at) / RFU TPSAB1 /// TPSB2 (11721975_s_at) / Fold change /veh TPSAB1 /// TPSB2 (11721975_s_at) / RFU GSTM3 (11746129_a_at) / Fold change /veh GSTM3 (11746129_a_at) / RFU IL23R (11737362_x_at) / Fold change /veh IL23R (11737362_x_at) / RFU TMEM51 (11727254_a_at) / Fold change /veh TMEM51 (11727254_a_at) / RFU PIWIL2 (11732686_x_at) / Fold change /veh PIWIL2 (11732686_x_at) / RFU ORM1 (11744905_x_at) / Fold change /veh ORM1 (11744905_x_at) / RFU CCDC152 (11743942_at) / Fold change /veh CCDC152 (11743942_at) / RFU ECM1 (11717891_a_at) / Fold change /veh ECM1 (11717891_a_at) / RFU IL23R (11748794_a_at) / Fold change /veh IL23R (11748794_a_at) / RFU TNFAIP8L3 (11732012_x_at) / Fold change /veh TNFAIP8L3 (11732012_x_at) / RFU MBOAT4 (11741988_at) / Fold change /veh MBOAT4 (11741988_at) / RFU 11764193_at / Fold change /veh 11764193_at / RFU TMEM53 (11763286_at) / Fold change /veh TMEM53 (11763286_at) / RFU MAGEB2 (11727129_at) / Fold change /veh MAGEB2 (11727129_at) / RFU TMEM200A (11744735_a_at) / Fold change /veh TMEM200A (11744735_a_at) / RFU CCDC152 (11751479_a_at) / Fold change /veh CCDC152 (11751479_a_at) / RFU FAM211A (11726209_a_at) / Fold change /veh FAM211A (11726209_a_at) / RFU RGS16 (11746705_a_at) / Fold change /veh RGS16 (11746705_a_at) / RFU VCAN (11755009_s_at) / Fold change /veh VCAN (11755009_s_at) / RFU RHOB (11743442_s_at) / Fold change /veh RHOB (11743442_s_at) / RFU RGS16 (11720943_a_at) / Fold change /veh RGS16 (11720943_a_at) / RFU RGS16 (11720944_at) / Fold change /veh RGS16 (11720944_at) / RFU, VPS4B / Fold change vs veh, VPS4B / RFU, CREB1 / Fold change vs veh, CREB1 / RFU, DNAJC13 / Fold change vs veh, DNAJC13 / RFU, GNAQ / Fold change vs veh, GNAQ / RFU, CDK5R1 / Fold change vs veh, CDK5R1 / RFU, ZRANB3 / Fold change vs veh, ZRANB3 / RFU, CUL4A / Fold change vs veh, CUL4A / RFU, CCNY / Fold change vs veh, CCNY / RFU, UFL1 / Fold change vs veh, UFL1 / RFU, COG3 / Fold change vs veh, COG3 / RFU, DIAPH2 / Fold change vs veh, DIAPH2 / RFU, SKA2 / Fold change vs veh, SKA2 / RFU, AFF3 / Fold change vs veh, AFF3 / RFU, LMF1 / Fold change vs veh, LMF1 / RFU, IPO11 / Fold change vs veh, IPO11 / RFU, DFFB / Fold change vs veh, DFFB / RFU, FOXP1 / Fold change vs veh, FOXP1 / RFU, CARD8 / Fold change vs veh, CARD8 / RFU, STRN3 / Fold change vs veh, STRN3 / RFU, ADK / Fold change vs veh, ADK / RFU, RASSF2 / Fold change vs veh, RASSF2 / RFU, WIPF1 / Fold change vs veh, WIPF1 / RFU, LARP1B / Fold change vs veh, LARP1B / RFU, RASA1 / Fold change vs veh, RASA1 / RFU, RB1 / Fold change vs veh, RB1 / RFU, PPFIA1 / Fold change vs veh, PPFIA1 / RFU, MAT2A / Fold change vs veh, MAT2A / RFU, CCT5 / Fold change vs veh, CCT5 / RFU, WDR92 / Fold change vs veh, WDR92 / RFU, CUX1 / Fold change vs veh, CUX1 / RFU, TTC7A / Fold change vs veh, TTC7A / RFU, TMEM135 / Fold change vs veh, TMEM135 / RFU, DEPTOR / Fold change vs veh, DEPTOR / RFU, CPM / Fold change vs veh, CPM / RFU, DNAJB6 / Fold change vs veh, DNAJB6 / RFU, CACNA2D3 / Fold change vs veh, CACNA2D3 / RFU, DTX4 / Fold change vs veh, DTX4 / RFU, TFCP2 / Fold change vs veh, TFCP2 / RFU, GMCL1 /// GMCL1P1 / Fold change vs veh, GMCL1 /// GMCL1P1 / RFU, AEBP2 / Fold change vs veh, AEBP2 / RFU, SNHG1 /// SNORD22 /// SNORD25 /// SNORD26 /// SNORD27 /// SNORD28 /// SNORD29 /// SNORD31 / Fold change vs veh, SNHG1 /// SNORD22 /// SNORD25 /// SNORD26 /// SNORD27 /// SNORD28 /// SNORD29 /// SNORD31 / Fold change (Aza/veh), C12orf56 (ProbeSet 11735607_a_at) / Fold change (ACY-1035/veh), C12orf56 (ProbeSet 11735607_a_at) / Fold change (Aza/veh), FGFR1OP (ProbeSet 11751329_s_at) / Fold change (ACY-1035/veh), FGFR1OP (ProbeSet 11751329_s_at) / Fold change (Aza/veh), VPS36 (ProbeSet 11739960_a_at) / Fold change (ACY-1035/veh), VPS36 (ProbeSet 11739960_a_at) / RFU SYPL1 (11715823_x_at) / Fold change /veh SYPL1 (11715823_x_at) / RFU IGFBP7 (11715501_s_at) / Fold change /veh IGFBP7 (11715501_s_at) / RFU REEP3 (11722064_at) / Fold change /veh REEP3 (11722064_at) / RFU IGLL1 (11728026_x_at) / Fold change /veh IGLL1 (11728026_x_at): dose or concentration left out as unconfirmed
Conditions: MV-4-11 cells, 48 hours

## Nc1ncn([C@@H]2O[C@H](CO)[C@@H](O)[C@H]2O)c(=O)n1 [azacitidine]
  Fold change /veh CYB561 (11721691_x_at): 1.09

Reference: paper PMC5218480 (PLoS ONE, 2017)
